Assay results published in PMC10876879, “Sustained silencing peanut allergy by xanthopurpurin is associated with suppression of peripheral and bone marrow IgE-producing B cell” (Frontiers in Immunology, 2024).
In brackets after ≈: the same amount, converted by molar mass.

Tests used:
[1] = test system: IgE production by U266 cells; assay: IgE production by human myeloma U266 cells, IgE ELISA of supernatants; format: cell-based
Method: The human myeloma cell line (U266), purchased from ATCC (American Type Culture Collection; Rockville, MD), has been used to test different herb extracts and purified compounds for their IgE inhibitory effects ([31]). 2×10^5 cells/mL of cells were cultured at 37°C under 5% CO2 in complete media containing RPMI 1640 medium supplemented, 10% FBS, 1 mM sodium pyruvate, 1×10^-5 M β-ME and 0.5% penicillin-streptomycin. XPP at 0, 2.5, 5, 10, 20 and 40 μg/mL were added at day 0. After 6 days, supernatants were harvested and IgE levels were measured by using an ELISA Kit (Mabtech Inc, OH). Briefly, samples and standards were added into prewashed 96-well plate coated with capture monoclonal antibodies (mAbs). After 2-hour incubation at room temperature, plate was washed 5 times and incubated with detection mAb for 1 hour. The plate was then washed for 5 times and incubated with streptavidin-HRP for 1hour at room temperature. The plate was then washed and developed with TMB substrate for 15 min. The optical density was measured using ELISA reader at 450nm. IgE concentrations were calculated based on the standard curve.
S Figure 2. The IgE inhibitory effect of five fractions from R.cordifolia. U266 cells (2 × 10^5 cells/mL) were co-incubated with each fraction at the concentration of 10 μg/mL for 6 days. The supernatants were harvested and IgE levels were measured by ELISA. The inhibition percentage was calculated using the equation “% inhibition = (1- IgE level each fr / IgE level non-treated ) x 100%”.

U266 cells = assay: RNA sequencing of XPP-treated U266 cells; format: cell-based, human; details: XPP 10 μg/mL, 3 days
Method: U266 cells were treated with XPP at 10 μg/mL. After 3 days of treatment, cells were collected and total RNA was isolated using Qiagen RNeasy MiniKits following the manufacturer’s instructions. The purity of total RNA was analyzed and the RNA-Seq was performed with an Illumina HiSeq2500 instrument at the Genomics Core facility at Icahn School of Medicine at Mount Sinai. Counts were converted to Log2 counts per million and normalized. A log2 fold change was calculated and the gene list with values ≥ 2 or ≤ -2 were uploaded to DAVID bioinformatic system for functional analysis.

naïve C3H/HeJ mice [2] = assay: Sub-chronic toxicity assay; format: in vivo
Method: (§1) For acute toxicity analysis, naïve C3H/HeJ mice were fed with 4 mg of XPP per mouse, which is10 times of the daily dose. […] In the sub-chronic toxicity assay, naïve C3H/HeJ mice were fed with 5 times their daily therapeutic dose (2 mg/day) for 14 days. Control group mice (sham) were fed with water. Blood samples were collected at the end of each experiment. Blood urea nitrogen (BUN) and alanine aminotransferase (ALT) measurements for the evaluation of kidney and liver functions respectively and complete blood count (CBC) testing were performed by ALX laboratories, NY.

naïve C3H/HeJ mice [3] = assay: Acute toxicity assay; format: in vivo
Method: as §1

[4] = 10x dose (4 mg/mouse) once, observed 14 days

## O=C1c2ccccc2C(=O)c2c(O)cc(O)cc21 [XPP, xanthopurpurin]
[1]; Homo sapiens, U-266, 144 h, 6 days culture, IgE ELISA
  IC50: 9 µg/mL (≈ 37.5 µM)
[1]; U266 cells, 6 days
  XPP concentration at which complete inhibition of IgE production was observed: 40 µg/mL
  XPP concentration at which inhibition of IgE was first observed: 2.5 µg/mL
[1]; U266 cells, 6 days, p < 0.01
  XPP concentration reaching statistically significant inhibition of IgE: 10 µg/mL
[1]; XPP 2.5-40 µg/mL, 6 days
  IgE production by U266 cells: inhibited the IgE production by U266 cells in a dose-dependent manner
U266 cells
  Number of genes downregulated (RNA-Seq): 5094 genes
  Number of genes upregulated (RNA-Seq): 4009 genes
naïve C3H/HeJ mice [2]; mouse, in vivo
  CBC: white blood cell, red blood cell, hemoglobin and platelet levels vs control group and normal range: within the normal range and similar to the control group
naïve C3H/HeJ mice [2]; sub-chronic, 5 times (2 mg/day) for 14 consecutive days
  Deaths, abnormal behavior or diarrhea: No deaths and abnormal behavior or diarrhea were observed either
naïve C3H/HeJ mice [2]; sub-chronic, 5x dose (2 mg/day/mouse) for 14 days
  Mortality: 0.00%
naïve C3H/HeJ mice [3]; 10 times (4 mg/day) once, observed daily for 14 days
  Deaths, abnormal behavior or diarrhea: No deaths and abnormal behavior or diarrhea were observed
naïve C3H/HeJ mice [3]; [4]
  Morbidity: 0.00%
  Mortality: 0.00%
